Experimental data reported in patent US20110070269A1, “LIPOPOLYSACCHARIDE ISOLATED FROM PYRULARIA TISSUE AND/OR PYRULARIA-ASSOCIATED BACTERIA AND USES THEREOF” (THERAPRO TECHNOLOGIES, INC., priority 2009, published 2011).

Experiments:
bone marrow cells = assay: Bone marrow cell viability (propidium iodide exclusion); assay type: cell-based; settings: mouse, 3 mM
Procedure: Cells (200 μL, prepared as described above) were collected after gentle trituration to resuspend cells. Each aliquot was diluted with 1 mL PBS, centrifuged to pellet the cells, and the supernatant liquid was removed. The washed cells were sequentially stained in the dark at 4° C. for 15 minutes with anti-CD16/32 to prevent non-specific labeling, then for 45 minutes with either anti-Mac-1-FITC×anti-Mac-1-PE or with Gr-1-FITC×Mac-1-PE. Cells were washed once at 4° C. with 1 mL of PBS and then resuspended in 1 mL of PBS. Human cells were labeled with anti-Mac-1 as above or with anti-Mac-1-FITC×anti-CD14. A Coulter EPICS-XL™ flow cytometer was used to enumerate dual, positively-staining control sub-populations and detection of nascent stimulated sub-populations. Activated sub-populations, which labeled with more intensity along the y-axis in Gr-I-FITC×Mac-1-PE, were designated as Mac-1^+hi. Control unactivated cells that also stained positively in both dimensions were designated, Mac-1^+lo. Dead cells were eliminated from analysis by prior staining with propidium iodide. Approximately 15-20×10^3 cells were counted for each analysis. Percent of cells activated was determined as:
Over 15×10^3 cells were analyzed for each sample. Bone marrow cell viability among all samples including the untreated control was 70-76% as determined by propidium iodide exclusion.

murine bone marrow cells = assay: Bone marrow activation assay (flow cytometry, percent of cells activated); assay type: cell-based, mouse; settings: 3 mM
Procedure: Bone marrow was flushed from the femurs of Balb/C mice with RPMI medium. Cells were collected by centrifugation and the pellet treated with 1 mL of red cell lysis buffer (as described above) for five minutes at 25° C., followed by dilution with 12 mL of RPMI media. Cells were washed by two cycles of centrifugation and resuspension in RPMI. On the final wash, cells were counted using a hemocytometer and the final pellet was resuspended to 4×10^6 cells/mL with RPMI media for use in activation assays, which were quantitated by flow cytometric analysis (described below).
Cells (200 μL, prepared as described above) were collected after gentle trituration to resuspend cells. Each aliquot was diluted with 1 mL PBS, centrifuged to pellet the cells, and the supernatant liquid was removed. The washed cells were sequentially stained in the dark at 4° C. for 15 minutes with anti-CD16/32 to prevent non-specific labeling, then for 45 minutes with either anti-Mac-1-FITC×anti-Mac-1-PE or with Gr-1-FITC×Mac-1-PE. Cells were washed once at 4° C. with 1 mL of PBS and then resuspended in 1 mL of PBS. Human cells were labeled with anti-Mac-1 as above or with anti-Mac-1-FITC×anti-CD14. […] Approximately 15-20×10^3 cells were counted for each analysis. Percent of cells activated was determined as: […]

Balb/C mice [1] = assay: Prevention of drug-induced (melphalan) toxic death; assay type: in vivo, mouse; settings: melphalan 100 mg/kg i.p. alone
Procedure: The effect of PyEx upon myelocyte stimulation was also observed in vivo as prevention of drug-induced myelosuppression. […] A separate group received melphalan (100 mg/kg, i.p.) and PyEx-1 (10 μg/mouse, subcutaneously). PyEx-1 was given immediately after or as late as 18 hours after melphalan administration, and every 48 hours thereafter.

Balb/C mice [2] = assay: In vivo neutropenia model (sub-lethal cyclophosphamide); set-up: species or system mouse; settings: day five
Procedure: Eighteen to twenty-four hours later (day 1), control mice received an injection of saline and the PyEx group received a single dose of PyEx (20 μg/mouse). Mice were bled sequentially via the retro-orbital sinus or tail vein at various times thereafter. Blood was collected in heparinized capillary tubes.
For determination of total versus white cells, blood was diluted into Isoton II (Beckman-Coulter, Fullerton, Calif.). Total cells and white cells were counted using a Model ZM Coulter counter (Beckman-Coulter, Fullerton, Calif.). White cell counts were determined following treatment of whole blood with a RBC lytic reagent (Zap-Oglobin, Beckman-Coulter, Fullerton, Calif.). Blood granulocytes and myelocytes were quantitated by means of an EPICS-XL™ flow cytometry after lysis of red cells.
To more clearly determine what populations of cells were stimulated by treatment with PyEx, in a similar experiment blood and bone marrow cells were collected and analyzed for total blood granulocytes and myelocytes. […] PyEx-1 (20 μg/mouse) was given to mice 24 hours after administration of CP. Blood from PyEx-1 treated experimental and saline treated control mice was collected with heparinized capillary tubes five days after CP administration. Following lysis of red cells, the remaining cells were analyzed by means of an EPICS-XL™ flow cytometer (Beckman-Coulter, Fullerton, Calif.). […]

[3] = Physical analysis: stability of the immunostimulatory/mitogenic activity; assay type: physicochemical; settings: proteinase K 50 μg/ml, 10 mM Tris pH 8.0, 10 mM EDTA, 0.5% SDS, 56° C., 30 minutes
Procedure: A mitogenic assay was used as a measure of immunostimulation. For the mitogen assay, isolated cells were diluted to 1.5×10^6 cells/mL. Aliquots of cells (200 μL/well) were incubated in sterile 96-well plates for 24 to 48 hours prior to the addition of 1 μCi/well of [^3H]thymidine. Radiolabeled DNA was collected on glass fiber filters by means of an Inotech cell harvester (Rockville, Md.) and associated radioactivity was determined by means of an Inotech radiometric instrument or by scintillation counting of individual filters. TLF-D, a proprietary reagent, was utilized at 10 μg/ml to amplify the mitogenic activity of Pyrularia extract (PyEx) in a synergistic fashion.

human bone marrow cells = assay: Activation of human bone marrow (Mac-1 x CD14 flow cytometry); assay type: cell-based; settings: 5 ng/mL, fresh marrow from normal donor
Procedure: Human bone marrow was provided by the Bone Marrow Transplantation Unit, University of Utah. Experiments were initiated upon obtaining fresh marrow from normal donors. Whole marrow was treated as described above for murine marrow samples. Following incubation for 24 to 36 hours with PyEx or other agents as described, cells were stained with anti-Mac-1-FITC×anti-CD14-PE. Cells were analyzed using a Coulter EPICS-XL™ flow cytometer (Beckman-Coulter, Fullerton, Calif.). Activated populations were identified by positive staining with Mac-1×CD14 (designated Mac-1^+, CD14^+).

## CC(=O)CCCCn1c(=O)c2c(ncn2C)n(C)c1=O [pentoxifylline]
Bone marrow cells
  Viability: 61.5%
Murine bone marrow cells
  Activation: 7.54%

## N[C@@H](Cc1ccc(N(CCCl)CCCl)cc1)C(=O)O [Melphalan, melphalan]
Balb/C mice [1]
  Average time of death: day 7
  Drug related deaths/# in group: 3/6
Balb/C mice [1]; listed as melphalan
  Average time of death: eight

## O=P1(N(CCCl)CCCl)NCCCO1 (stereo not drawn) [Cyclophosphamide]
Balb/C mice [2]; CP 200 mg/kg alone
  total WBC restoration, % of the difference between the nadir value and the control value: 45%
Balb/C mice [2]; cyclophosphamide 200 mg/kg alone, blood
  Percentage of Granulocytes in Control: 1%

## concanavalin A
[3]
  effect of proteinase K treatment on mitogenic activity: completely inactivate

## rhGM-CSF: Recombinant human granulocyte macrophage-colony stimulating factor
Human bone marrow cells
  activated sub-population (Mac-1+, CD14+), % of total cells: 9%
